What was measured:
Assay type in all cases: cell-based
PMN-superoxide = assay: Inhibition of PMN superoxide secretion (ferricytochrome C reduction); details: human PMN granulocytes primed with TNF-α, stimulated with fMLP; read-out: The median inhibition concentration (IC50, nM) of PMN-superoxide
Protocol: The compounds of the present invention also show similar activities in the ability to inhibit PMN (polymorphonuclear) superoxide secretion which is also indicative of potentially useful anti-inflammatory drugs The compounds were tested using the following procedure:
Human polymorphonuclear (PMN) granulocytes were Isolated from human blood by dextran sedimentation, Lymphoprep® fractionation and hypotonic lysis of contaminating erythrocytes.
Superoxide anion generation was measured as the superoxide dismutase inhibitable reduction of ferricytochrome C (Madhu, S. B. et al, Inflammation, 16 241, (1992)). The cells were suspended in Hanks' balanced salt solution, and incubated for 10 minutes at 37° C. with test compounds. The cells were primed by the addition of TNF-α (3 ng/ml final concentration) for 10 minutes, and then ferricytochrome C, (final concentration 750 μg/ml), bovine serum albumin (BSA, final concentration 1 mg/ml) and formyl-methionyl-leucyl-phenylalanine (fMLP, final concentration 10^−7 M) were added for 3 minutes. The cells were chilled on ice, and were spun down. The optical densities in the cell-free supernatant was measured in a spectrophotometer. The median Inhibitory concentration (IC50) of the compounds was calculated.

IL-1β = assay: Inhibition of IL-1β secretion in LPS stimulated peripheral blood mononuclear cells; details: PBMC; LPS stimulated human peripheral blood mononuclear cells, 18 hours, ELISA; read-out: The median inhibition concentration (IC50, nM) of IL-1β
Protocol: (§1) To study the effect of the compound of the present invention in vitro the inhibition of the IL-1β and TNF-α secretion was measured using the following procedure:
(§2) Cytokine production was measured in the media from lipopolysaccharide (LPS) stimulated peripheral blood mononuclear cells. The mononuclear cells were isolated from human. peripheral blood by Lymphoprep® (Nycomed, Norway) fractionation and suspended in RPMI 1640 (growth medium) with foetal calv serum (FCS, 2%), at a concentration of 5×10^5 cells/ml. The cells were incubated in 24-well tissue culture plates in 1 ml aliquots. Test compounds were dissolved in dimethylsulfoxide (DMSO, 10 mM) and were diluted with the medium. Compounds were added to the cells for 30 minutes, then LPS ([…] final concentration) was added. The plates were incubated for 18 hours, and the concentration of IL-1β and TNF-α in the medium was determined by enzyme-linked immunosorbent assays. The median inhibitory concentrations (IC50) of the compounds were calculated.

TNF-α = assay: Inhibition of TNF-α secretion in LPS stimulated peripheral blood mononuclear cells; details: PBMC; LPS stimulated human peripheral blood mononuclear cells, 18 hours, ELISA; read-out: The median inhibition concentration (IC50, nM) of TNF-α
Protocol: as §1, §2

IC50 (PMN-superoxide)	IC50 (IL-1β)	IC50 (TNF-α)	SMILES
4 nM	13 nM	5 nM	Cc1ccccc1C(=O)c1ccc(Nc2ccccc2NC(=O)NC2CCCCC2)cc1Cl [Compound 101, 1-Cyclohexyl-3-[2-[3-chloro-4-(2-methylbenzoyl)-phenylamino]phenyl]urea]
316 nM	> 1000 nM	631 nM	CCNC(=O)Nc1ccccc1Nc1ccc(C(=O)c2ccccc2)cc1 [ref. b), 1-Ethyl-3-[2-(4-benzoyl-phenylamino)phenyl]urea, reference compound]
4 nM	7.9 nM	3.2 nM	CCNC(=O)Nc1cc(F)ccc1Nc1ccc(C(=O)c2ccccc2C)c(Cl)c1 [Compound 114, 1-Ethyl-3-[2-[3-chloro-4-(2-methylbenzoyl)-phenylamino]-5-fluoro-phenyl]urea]
13 nM	22 nM	2.2 nM	CCNC(=O)Nc1ccccc1Nc1ccc(C(=O)c2ccccc2C)c(Cl)c1 [Compound 102, 1-Ethyl-3-[2-[3-chloro-4-(2-methylbenzoyl)-phenylamino]phenyl]urea]

Reference: patent publication US6750253B1, “Aminobenzophenones as inhibitors of il-1β and tnf-α” (Leo Pharmaceutical Products Ltd. A/S, priority 1999, dated 2004)
